Experimental findings from patent US9255263B2, “Antithrombotic compounds” (King's College London, priority 2009, dated 2016) are described below.

For data set [1], the system named is RBCs. Description: Internalisation by 2-colour FACS on RBCs. It counts as cell-based. As to the method:
To gain insight into internal versus external exposure of the compounds, cells treated with these materials were incubated with an antibody raised against hirudin (anti Hir-mAb) which cross-reacts with the HLL-1 peptide sequence. Compounds located on the outside of cells were detected by FACS using this antibody in combination with a secondary phycoerythrin (PE)-conjugated antibody, at different time points. This system enabled the ratios of externally presented compound (red PE plus green FAM fluorescence) and internalised compound (green fluorescence only) to be estimated.

Data set [2] concerns the target human thrombin (Homo sapiens, UniProt P00734). The experiment in a line: GPBC assay: compound bound to guinea pig erythrocytes against exogenous human thrombin. It counts as cell-based. The settings on record: inhibitors 1 uM at cell-binding step, normalised for cell number. As to the method:
Method and results. Guinea Pig Blood Cells (GPBCs Harlan, UK) were extensively washed with Gelatin Veronal Buffer (GVB, Sigma G6514). A fixed volume of cell suspension (100 ul containing about 10^8 cells) was then diluted 1:1 with GVB before Compounds 1 or 2 were added; control HLL was used at the same final concentration. Cells were incubated for 10 min at ambient temperature with gentle agitation. Three washes with GVB were performed (each with at least 500 ul GVB) before discarding the supernatant and leaving cell pellet as dry as possible. Cell pellet was then resuspended with GVB and hThrombin (between 0.01 and 0.1 units) was added: reaction volume was 460 ul. Cells were incubated for 3 min at 37° C. in a waterbath and after incubation, gently pelleted by centrifugation. Supernatant (˜400 ul) was recovered and spun again to remove any residual cells. Supernatant (380 ul) was transferred to a spectrophotometer and 70 µl of GVB and 50 ul thrombin substrate (1 mM in GVB) added. The sample adsorbance was recorded at 405 nm for 20 min at 25° C.
The cell-based thrombin inhibitory capacity of Compounds 1 and 2 were compared by normalising for cell number in the GPBC assay. […] Both values result from using inhibitors at 1 uM final concentration of the compounds at the cell-binding step.

The nature of data set [3]: Solubility observed during preparation. It counts as physicochemical. As to the method:
N-myristoyl-GSSKSPSKKKKKKPGDC(S-2-thiopyridyl)-amide (containing SEQ ID NO. 4) (Smith R, Biochem. Soc. Transactions, 30: 1037-41, 2002) was prepared by solid phase synthesis. 0.1 ml of a solution of this conjugate (10 mg/ml) in DMSO was added to a solution of HLL-1 in PBS (4.8 mM, 0.2 ml). The mixture was held at 24° C. for 1 h and the concentration of 2-thiopyridine released calculated from the absorbance at 343 nm. […] After a further 30 min at 24° C., approximately 84% of the HLL peptide had reacted. The mixture was diluted to 2 ml with PBS (slight cloudiness was observed) and then concentrated using a Vivaspin 2 3 kDa cutoff PES membrane cartridge at 2500 rpm/4° C./90 min. […] Compound 3 has a theoretical molecular weight of 4403 daltons.

Data set [4] concerns Human CD34-derived progenitor cells. The experiment in a line: Human plasma recalcification (clotting) assay with prothrombotic cells. It counts as cell-based. As to conditions: for effect on cell-promoted fibrin clot formation: cells pre-incubated with agent and washed. As to the method: Human plasma preparation: Human blood was drawn from volunteers with heparin and human plasma prepared by centrifugation, before storage at −80° C.
Human plasma recalcification assay (based on Lin et al Transplantation, 86(5):702-9, 2008): Human CD34-derived progenitor cells were suspended in 50 μl Tris-buffered saline and mixed with 100 μl of normal human plasma (Sigma) in glass tubes (Corning, Corning, N.Y.). Ten (10) μl of 250 mM CaCl2 in Tris-buffered saline combined with 90 μl phospholipids (Diagnostic Reagents, Oxford, UK) were added, and the tube incubated at 37° C. in a water bath—the time for a fibrin clot to form was determined in triplicate, during which time the tubes were continuously agitated by tilting. In some assays, cells were incubated with 200 uL of Compound 1 (50 uM) for 30 min at 4° C. before washing twice and inclusion in the clotting assay.

For data set [5], the system named is DA kidney graft in pre-sensitised Lewis recipients. It counts as in vivo, rat. An excerpt:
Rat used were inbred male DA (RT1^a) and Lewis (RT1^i) at the age of 7-8 weeks and a weight of 150-200 g. The model of hyperimmune rejection was based on renal allografts from MHC Class I disparate donors and recipients with modifications to enable life-sustaining renal transplantation. Prior to transplantation, Lewis recipients were pre-sensitised by sequential grafting of three 2×2 cm full thickness skin DA grafts placed to the recipient's dorsal back. The first two skin transplants were received biweekly, followed by a four week period during which alloantibody reached its peak (data not shown), followed by the placement of a third skin graft.
Seven to ten days after the third skin graft, Lewis recipients received a DA kidney graft which had been perfused with different concentrations of Compound 1 (0.1-5 μM) and either flushed or not with Soltran solution (see above).
For the recipient preparation, a midline laparotomy was performed followed by removal of the left kidney. Microaneurysm clips (Johnson & Johnson, UK) were used to clamp the renal vein and artery. The donor kidney was transplanted orthotopically in an end to end anastomosis of the renal vein, artery and ureter using 10-0 sutures (BEAR MEDIC Corp, Japan). The donor and the recipient preparations were taking place simultaneously thus eliminating any cold ischemia. At the end of warm ischemia time, which was 30 minutes, the clips were removed and blood flow was restored to the transplanted kidney. Finally, a second native nephrectomy was performed making the transplanted kidney life-sustaining.
APT070 is a 23 kDa fragment of human complement receptor type 1(CR1) described in WO 98/0245. […] The inventors assessed the effects of these agents in the RATx model as a preliminary to combination studies with Compound 1. […]

Several values for one entry are separate records, joined by “and”; a condition that tells them apart may be missing. Equal values may be shown once. Where no end group is shown, it is not given here. The star is where a group is joined. Myristoyl = CCCCCCCCCCCCCC(=O)*

For “Conjugate of Anticoagulant Peptide HLL-1 with N-(α,ε bis-myristoyl lysine) SSKSPSKKDDKKPGDC-acid ({Myristoyl-K(myristoyl)}-SSKSPSKKDDKKPGDC-OH; also: C-terminal Cys disulfide-linked to HLL-1 peptide) [Compound 2]”, the total labelled cells in data set [1] is 98%. In addition, the externally detected percentage result in data set [1] (after 1 h) is on record as “around 65%”. The “cells red and green (compound displayed on outer cell membrane)” value in data set [1] (initially) is 82%. The “ratio Compound 2/Compound 1 for the specific cell inhibition capacity” value in data set [2] (0.05 U of thrombin) is on record as 2.1; in data set [2] (0.1 U of thrombin), 1.3.
For “Conjugate of Anticoagulant Peptide HLL-1 with N-myristoyl-GSSKSPSKKKKKKPGDC(S-2-thiopyridyl)-amide (Myristoyl-GSSKSPSKKKKKKPGDC-NH2; not fully specified (residue 17); also: Cys S-2-thiopyridyl (activated form), conjugated to HLL-1 via Cys) [Compound 3]”, in data set [3], the “DMSO needed to maintain solubility” value is greater than 50 % v/v and the “solubility in aqueous buffers” value is given as “only limited solubility in aqueous buffers”.
As to `CC[C@H](C)[C@H](NC(=O)[C@H](CCC(=O)O)NC(=O)[C@H](CCC(=O)O)NC(=O)[C@H](Cc1ccccc1)NC(=O)[C@H](CC(=O)O)NC(=O)CNC(=O)[C@H](CC(=O)O)NC(=O)CNC(=O)CNC(=O)CNC(=O)CNC(=O)[C@@H]1CCCN1C(=O)[C@H](CCCNC(=N)N)NC(=O)[C@@H]1CCCN1C(=O)[C@H](N)Cc1ccccc1)C(=O)N1CCC[C@H]1C(=O)N[C@@H](CCC(=O)O)C(=O)N[C@@H](CCC(=O)O)C(=O)N[C@@H](Cc1ccc(O)cc1)C(=O)N[C@@H](CC(C)C)C(=O)NCC(=O)NCC(=O)N[C@@H](CS)C(N)=O` [HLL, reference compound], in data set [4], the “effect on cell-promoted fibrin clot formation” value was “little inhibition of cell-mediated clotting”.
“Conjugate of Anticoagulant Peptide HLL-1 with 1,2-distearoyl-sn-glycero-3-phosphoethanolamine-N-[2-thiopropionyl(polyethyleneglycol)-2000] (FPRPGGGGDGDFEEIPEEYLGGC; not fully specified) [Compound 1]”: the “time for a fibrin clot to form, mean of three tubes” value in data set [4] (cells pre-incubated with Compound 1 (50 uM) 30 min at 4° C., washed twice, re-calcified human plasma) came out at 172 s. Also, the “time for a fibrin clot to form, single tube” value in data set [4] (cells pre-incubated with Compound 1 (50 uM) 30 min at 4° C., washed twice, re-calcified human plasma, listed as C.1) was 169 s and 172 s and 175 s. Also, the “effect on cell-promoted fibrin clot formation” value in data set [4] is on record as “inhibited this effect”. Besides, in data set [5] (donor kidney perfused with 2 uM, flushed, controls did not survive longer than 48 h), the survival after transplantation lay in the range of 5 to 6 days. Moreover, in data set [5] (donor kidney perfused with 2 uM, flushed, versus control), the BUN deterioration result is “deterioration was significantly slower”. Moreover, the “threshold concentration for bleeding” value in data set [5] (rat, in vivo) was “around 10 nM”.
